# Measured values taken from US12605424B2 (priority 2019, dated 2026).
# Read-outs that look alike come from different tables or passages of the source.
# Tests used:
# [1] = tested on: Br2 (600/30) exposed neonatal mice; conditions: mouse, in vivo
# [2] = tested on: human bronchial epithelial cells (HBECs); type: cell-based
# [3] = tested on: C57BL/6 mice exposed to Br2 gas; conditions: mouse, in vivo
# [4] = tested on: C57BL/6 mice exposed to Cl2, Br2 or COCl2; conditions: mouse, in vivo
# [5] = tested on: Neonatal mice exposed to Cl2; conditions: mouse, in vivo
# [6] = tested on: P. aeruginosa (strain PAK); conditions: mouse, in vivo
# P aeruginosa = type: cell-based, mouse
# [7] = tested on: C57BL/6 mice exposed to COCl2; conditions: mouse, in vivo
# [8] = tested on: Mice having sickle cell disease exposed to chlorine; conditions: mouse, in vivo
# [9] = tested on: C57bl/6 mice exposed to Br2; conditions: mouse, in vivo
# [10] = mouse, in vivo
# [11] = mouse, in vivo; remark: listed apart in the source
# [12] = mouse, in vivo; cited from earlier work
# ENaC = ENaC (Homo sapiens, UniProt P37088+P51168+P51170); type: cell-based
# Chain of ENaC (P51168 whole entry): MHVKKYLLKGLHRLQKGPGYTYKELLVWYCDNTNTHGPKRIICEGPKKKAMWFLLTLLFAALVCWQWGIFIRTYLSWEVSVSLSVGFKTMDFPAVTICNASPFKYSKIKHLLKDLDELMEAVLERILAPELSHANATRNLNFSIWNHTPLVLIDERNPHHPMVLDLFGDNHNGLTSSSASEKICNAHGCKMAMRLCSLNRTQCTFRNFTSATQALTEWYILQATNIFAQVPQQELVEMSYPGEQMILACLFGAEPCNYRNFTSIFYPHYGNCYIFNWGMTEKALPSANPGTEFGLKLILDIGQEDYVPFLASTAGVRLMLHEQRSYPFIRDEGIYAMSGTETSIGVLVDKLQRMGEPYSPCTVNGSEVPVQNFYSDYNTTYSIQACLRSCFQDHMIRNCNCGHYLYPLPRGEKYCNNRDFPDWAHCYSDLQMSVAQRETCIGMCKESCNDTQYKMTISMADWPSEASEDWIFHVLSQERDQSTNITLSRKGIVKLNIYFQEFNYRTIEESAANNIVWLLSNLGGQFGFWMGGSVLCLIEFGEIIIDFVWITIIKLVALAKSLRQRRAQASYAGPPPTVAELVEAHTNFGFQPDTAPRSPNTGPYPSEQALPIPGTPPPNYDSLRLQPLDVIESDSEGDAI
# Chain of ENaC (P51170 whole entry): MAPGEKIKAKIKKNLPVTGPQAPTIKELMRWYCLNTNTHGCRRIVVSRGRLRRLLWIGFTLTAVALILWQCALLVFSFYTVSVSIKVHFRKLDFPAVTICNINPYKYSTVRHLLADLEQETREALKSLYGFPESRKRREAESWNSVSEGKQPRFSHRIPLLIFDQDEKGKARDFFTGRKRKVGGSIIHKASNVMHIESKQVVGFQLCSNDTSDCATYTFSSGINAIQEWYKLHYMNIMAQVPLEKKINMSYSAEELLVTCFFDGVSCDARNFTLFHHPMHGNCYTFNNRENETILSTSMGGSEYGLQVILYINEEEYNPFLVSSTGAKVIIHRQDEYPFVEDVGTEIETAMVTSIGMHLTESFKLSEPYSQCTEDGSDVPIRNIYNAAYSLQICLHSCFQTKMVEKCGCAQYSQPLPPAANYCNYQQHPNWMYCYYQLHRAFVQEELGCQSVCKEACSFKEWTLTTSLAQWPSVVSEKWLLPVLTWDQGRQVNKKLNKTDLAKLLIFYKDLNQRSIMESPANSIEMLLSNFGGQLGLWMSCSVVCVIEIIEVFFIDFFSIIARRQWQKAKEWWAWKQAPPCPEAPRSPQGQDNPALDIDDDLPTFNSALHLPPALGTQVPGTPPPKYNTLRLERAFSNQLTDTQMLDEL
# Chain of ENaC (P37088 whole entry): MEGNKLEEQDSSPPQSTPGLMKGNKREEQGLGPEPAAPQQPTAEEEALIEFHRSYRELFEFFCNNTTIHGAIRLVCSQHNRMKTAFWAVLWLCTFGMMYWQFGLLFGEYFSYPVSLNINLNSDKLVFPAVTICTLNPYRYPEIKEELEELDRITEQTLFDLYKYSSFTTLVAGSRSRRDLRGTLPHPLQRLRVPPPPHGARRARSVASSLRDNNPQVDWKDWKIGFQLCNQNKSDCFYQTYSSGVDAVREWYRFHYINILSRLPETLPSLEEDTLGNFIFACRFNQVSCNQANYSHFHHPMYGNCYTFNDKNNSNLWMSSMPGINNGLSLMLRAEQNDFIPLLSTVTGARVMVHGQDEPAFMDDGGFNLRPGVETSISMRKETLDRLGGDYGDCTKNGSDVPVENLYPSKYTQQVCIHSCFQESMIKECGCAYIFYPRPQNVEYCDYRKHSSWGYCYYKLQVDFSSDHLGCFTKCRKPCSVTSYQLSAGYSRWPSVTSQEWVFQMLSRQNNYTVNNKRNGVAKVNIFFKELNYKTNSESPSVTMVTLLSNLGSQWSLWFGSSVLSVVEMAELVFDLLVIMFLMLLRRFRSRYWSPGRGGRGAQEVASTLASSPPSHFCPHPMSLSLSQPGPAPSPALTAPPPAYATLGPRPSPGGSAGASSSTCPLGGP
# CFTR = CFTR (Homo sapiens, UniProt P13569); type: cell-based
# Na^+/K^+-ATPase = type: cell-based, human
# α, β, γ-hENaC = α, β, γ-hENaC (Homo sapiens, UniProt P37088+P51168+P51170); type: cell-based
# Chain of α, β, γ-hENaC (P51168 whole entry): as the sequence (P51168 whole entry) above
# Chain of α, β, γ-hENaC (P51170 whole entry): as the sequence (P51170 whole entry) above
# Chain of α, β, γ-hENaC (P37088 whole entry): as the sequence (P37088 whole entry) above
# [13] = target: 4 pS amiloride-sensitive highly Na^+ selective channel (ENaC) (Mus musculus, UniProt Q61180+Q9WU38+Q9WU39); type: cell-based
# Chain of 4 pS amiloride-sensitive highly Na^+ selective channel (ENaC) (Q9WU38 whole entry): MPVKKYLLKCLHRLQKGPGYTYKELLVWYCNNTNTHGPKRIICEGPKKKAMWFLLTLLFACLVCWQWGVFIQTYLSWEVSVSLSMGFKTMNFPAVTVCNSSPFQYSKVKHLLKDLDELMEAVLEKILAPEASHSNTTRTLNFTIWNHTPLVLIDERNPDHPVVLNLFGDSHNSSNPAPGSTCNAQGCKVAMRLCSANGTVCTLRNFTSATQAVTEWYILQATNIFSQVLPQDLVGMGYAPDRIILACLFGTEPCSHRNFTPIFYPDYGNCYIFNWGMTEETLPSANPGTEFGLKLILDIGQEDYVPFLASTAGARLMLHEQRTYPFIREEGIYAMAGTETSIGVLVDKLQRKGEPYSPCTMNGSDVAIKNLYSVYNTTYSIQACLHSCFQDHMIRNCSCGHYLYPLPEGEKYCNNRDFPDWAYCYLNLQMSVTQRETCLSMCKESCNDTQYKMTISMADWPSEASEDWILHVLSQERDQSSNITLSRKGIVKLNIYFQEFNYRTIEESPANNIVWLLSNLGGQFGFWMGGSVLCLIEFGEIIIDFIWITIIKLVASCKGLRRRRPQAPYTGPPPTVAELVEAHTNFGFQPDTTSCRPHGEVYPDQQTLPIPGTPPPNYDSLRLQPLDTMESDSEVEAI
# Chain of 4 pS amiloride-sensitive highly Na^+ selective channel (ENaC) (Q9WU39 whole entry): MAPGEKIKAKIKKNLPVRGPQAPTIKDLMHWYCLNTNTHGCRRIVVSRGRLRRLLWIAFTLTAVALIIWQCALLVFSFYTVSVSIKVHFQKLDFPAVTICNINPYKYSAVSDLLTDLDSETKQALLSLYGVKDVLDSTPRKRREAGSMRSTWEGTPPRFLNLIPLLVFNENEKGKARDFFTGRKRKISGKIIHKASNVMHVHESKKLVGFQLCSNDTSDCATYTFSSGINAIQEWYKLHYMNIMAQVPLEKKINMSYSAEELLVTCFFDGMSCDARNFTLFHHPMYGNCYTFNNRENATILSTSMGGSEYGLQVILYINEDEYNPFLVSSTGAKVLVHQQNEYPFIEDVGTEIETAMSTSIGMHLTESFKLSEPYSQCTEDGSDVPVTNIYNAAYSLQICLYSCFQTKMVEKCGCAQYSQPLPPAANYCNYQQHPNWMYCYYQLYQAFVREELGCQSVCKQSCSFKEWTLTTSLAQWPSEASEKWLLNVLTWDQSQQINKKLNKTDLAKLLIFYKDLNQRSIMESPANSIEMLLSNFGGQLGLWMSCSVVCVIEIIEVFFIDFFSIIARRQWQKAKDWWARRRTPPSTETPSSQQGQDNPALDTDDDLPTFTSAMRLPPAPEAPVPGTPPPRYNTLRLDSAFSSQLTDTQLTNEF
# Chain of 4 pS amiloride-sensitive highly Na^+ selective channel (ENaC) (Q61180 whole entry): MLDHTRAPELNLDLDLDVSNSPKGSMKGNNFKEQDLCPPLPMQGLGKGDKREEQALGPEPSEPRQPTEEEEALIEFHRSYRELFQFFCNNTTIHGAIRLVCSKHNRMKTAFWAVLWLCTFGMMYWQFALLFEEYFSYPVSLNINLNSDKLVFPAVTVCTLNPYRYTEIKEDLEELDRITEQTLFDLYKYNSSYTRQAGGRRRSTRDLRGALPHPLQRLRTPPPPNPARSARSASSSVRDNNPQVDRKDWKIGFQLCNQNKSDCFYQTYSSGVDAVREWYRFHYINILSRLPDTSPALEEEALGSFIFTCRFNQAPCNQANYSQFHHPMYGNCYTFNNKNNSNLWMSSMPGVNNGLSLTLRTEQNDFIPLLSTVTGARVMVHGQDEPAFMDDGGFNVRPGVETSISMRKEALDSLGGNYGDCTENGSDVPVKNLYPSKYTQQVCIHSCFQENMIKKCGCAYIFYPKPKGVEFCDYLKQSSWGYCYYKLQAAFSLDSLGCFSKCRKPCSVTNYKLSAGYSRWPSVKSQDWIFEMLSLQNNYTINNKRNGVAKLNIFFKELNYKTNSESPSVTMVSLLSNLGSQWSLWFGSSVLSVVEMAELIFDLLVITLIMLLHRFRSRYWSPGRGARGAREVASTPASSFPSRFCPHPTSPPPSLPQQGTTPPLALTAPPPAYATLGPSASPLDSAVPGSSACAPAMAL
# [14] = tested on: 16 pS non-selective cation channel; type: cell-based, mouse; conditions: read-out: IC50, decrease of open probability of 16 pS channel
compound,measurement,setting,value
"OCC1OC([S][Au])C(O)C(O)C1O [ATG, gold(1+);(3R,4S,5S,6R)-3,4,5-trihydroxy-6-(hydroxymethyl) oxane-2-thiolate, reference compound]",mortality,[1],not effective
same,systemic hypoxia,[1],not effective
"BrBr [Br2, bromine]",ER stress marker ATF4,[2],increased
same,ER stress marker CHOP,[2],remained unaltered
"O=C(/C=C/c1ccccc1)NC(NC(=S)Nc1cccc2cccnc12)C(Cl)(Cl)Cl (stereo not drawn) [salubrinal, (2E)-3-Phenyl-N-[2,2,2-trichloro-1-[[(8-quinolinylamino)thioxomethyl]amino]ethyl]2-propenamide, reference compound]",BALF elastase activity,[3],attenuated
same,BALF protein levels,[3],ameliorated
same,BALF total cell count,[3],ameliorated
same,"Masson's trichrome staining of lungs (collagen, fibrotic changes)",[3],decreased collagen levels and lung fibrotic changes
same,alveolar mean linear intercept (Lm),[3],attenuated
same,lung CHOP levels (immunoblot),[3],decrease
same,lung hydroxyproline levels,[3],decreased collagen levels
same,lung phosphorylated eIF2α (immunoblot),[3],significant increase
same,"lung volumes (PV curve), lung compliance and inspiratory capacity",[3],prevented Br2-induced increase
same,plasma elastase levels,[3],attenuated
Hemopexin [Hpx],"ATF4 and CHOP, immunohistochemical staining of lung sections",[3]; ip,attenuated ATF4 and CHOP levels around airways and completely abrogated the ER stress markers in the lung parenchyma
same,BALF elastase activity,[3]; ip,lower
same,BALF protein levels,[3]; ip,significantly reduced
same,BALF total cell count,[3]; ip,significantly reduced
same,"PV curve, lung compliance and inspiratory capacity",[3]; ip,prevented the shifting of the PV curve
same,alveolar Lm,[3]; ip,reduced
same,lung ATF4 (immunoblot),[3]; ip,low levels
same,lung CHOP (immunoblot),[3]; ip,low levels
same,lung collagen levels on Masson's trichrome staining,[3]; ip,significantly reduced
same,lung hydroxyproline levels,[3]; ip,significantly reduced
same,overall mortality (Kaplan-Meier),[3]; ip,reduced overall mortality
same,plasma elastase levels,[3]; ip,lower
same,plasma heme,[3]; ip,reduced
same,BALF heme,[4],attenuated
same,BALF inflammatory cell count,[4],attenuated
same,BALF protein levels,[4],reduced
same,BALF proteins,[4],attenuated
same,mortality (Kaplan-Meier),[4],reduced mortality
same,apical cytoplasm of the bronchial epithelium (histology),[5],exhibited some improvement
same,cellularity of alveolar septae (histology),[5],exhibited some recovery
same,mean linear intercept (MLI),[5],decreased MLI
same,survival,[5],improved survival
same,mortality,[1],not effective
same,systemic hypoxia,[1],not effective
same,bacterial colonies from lung homogenates on agar plates,[6],grew fewer bacterial colonies
same,survival,[6],improved survival
same,bactericidal function of neutrophils (bacterial colonies on agar),P aeruginosa,improved neutrophil function
same,BALF protein levels,[7],reduced BALF protein levels
same,probability of survival,[8],higher probability of survival
same,survival (Kaplan Meier),[9],improved survival
same,time plasma level is maintained / remains stable,[10],at least 24 h
same,plasma bioavailability (plasma concentration),[10]; im,about 25 μg/ml
same,plasma [IgM] relative to control,[11],≤ 8%
same,serum half-life,[12],approximately 7 days
ferric chloride heme,ER stress marker ATF4,[2],increased
same,ER stress marker CHOP,[2],increased
same,ENaC activity,ENaC,totally inhibited
same,transepithelial resistance,ENaC,above 1500 Ohms*cm^2
same,EC50,"ENaC; read-out: EC50, inhibition of trans-epithelial Na^+ transport across human airway cells",0.5 µM
same,IC50,"ENaC; read-out: IC50, inhibition of amiloride-sensitive ENaC short circuit current",~0.5 µM
same,"forskolin-stimulated, GlyH-101-inhibited CFTR currents",CFTR,"inhibited amiloride-sensitive, ENaC, but not forskolin-stimulated, GlyH-101-inhibited, CFTR, currents"
same,Na^+/K^+-ATPase function (ouabain-sensitive current),Na^+/K^+-ATPase,did not impair
same,Na^+ current (whole cell),"α, β, γ-hENaC",inhibited
same,inhibition of whole-cell Na^+ current,"α, β, γ-hENaC; 1 µM",80%
same,EC50,"[13]; read-out: EC50, inhibition of ENaC and cation Na^+ channels in mouse alveolar cells",0.125 µM
same,IC50,"[13]; read-out: IC50, decrease of open probability of 4 pS channel",0.125 µM
same,IC50,[14],0.125 µM
heme-Hpx complex: complex of heme with hemopexin,serum half-life,[12],approximately 7 h
nitrite [reference compound],survival (Kaplan Meier),[9],improved survival early
